US9783532B2, “Molecules having certain pesticidal utilities, and intermediates, compositions, and processes related thereto” (Dow AgroSciences LLC, priority 2013, dated 2017)

Tests used:
[1] = test system: Cabbage Looper (Trichoplusia ni) ("CL"); assay: Bioassay on cabbage looper (CL), 128-well diet tray assay; assay type: in vivo; details: Table ABC (FB), activity rating class, read-out: CL (Biological Results, Insect species)
Method: (§1) Certain molecules disclosed in this document were tested against BAW and CEW using procedures described in the following examples. In the reporting of the results, the “BAW & CL Rating Table” was used (See Table Section). BIOASSAYS ON BAW
Bioassays on CL were conducted using a 128-well diet tray assay. one to five second instar CL larvae were placed in each well (3 mL) of the diet tray that had been previously filled with 1 mL of artificial diet to which 50 μg/cm^2 of the test compound (dissolved in 50 μL of 90:10 acetone-water mixture) had been applied (to each of eight wells) and then allowed to dry. Trays were covered with a clear self-adhesive cover and held at 25° C., 14:10 light-dark for five to seven days. Percent mortality was recorded for the larvae in each well; activity in the eight wells was then averaged. The results are indicated in the table entitled “Table ABC: Biological Results” (See Table Section).

[2] = test system: Beet Armyworm (Spodoptera exigua) ("BAW"); assay: Bioassay on beet armyworm (BAW), 128-well diet tray assay; assay type: in vivo; details: Table ABC (FB), activity rating class, read-out: BAW (Biological Results, Insect species)
Method: as §1
Bioassays on BAW were conducted using a 128-well diet tray assay. one to five second instar BAW larvae were placed in each well (3 mL) of the diet tray that had been previously filled with 1 mL of artificial diet to which 50 μg/cm^2 of the test compound (dissolved in 50 μL of 90:10 acetone-water mixture) had been applied (to each of eight wells) and then allowed to dry. Trays were covered with a clear self-adhesive cover and held at 25° C., 14:10 light-dark for five to seven days. Percent mortality was recorded for the larvae in each well; activity in the eight wells was then averaged. The results are indicated in the table entitled “Table ABC: Biological Results” (See Table Section).

SMILES | pest or weed control at 50 µg/cm2 [1] | pest or weed control at 50 µg/cm2 [2]
Cc1ccc(C(C)C)c(N2C(=O)CS/C2=N\C(=O)NCCc2ccc(-c3ncn(-c4ccc(OC(F)(F)F)cc4)n3)cc2F)c1 [FB8, (Z)-1-(2-fluoro-4-(1-(4-(trifluoromethoxy)phenyl)-1H-1,2,4-triazol-3-yl)phenethyl)-3-(3-(2-isopropyl-5-methylphenyl)-4-oxothiazolidin-2-ylidene)urea] | 50 to 100% | 50 to 100%
COc1ccc(C(C)C)c(N2C(=O)CS/C2=N\C(=O)NCCc2ccc(-c3ncn(-c4ccc(OC(F)(F)F)cc4)n3)cc2F)c1 [FB9, (Z)-1-(2-fluoro-4-(1-(4-(trifluoromethoxy)phenyl)-1H-1,2,4-triazol-3-yl)phenethyl)-3-(3-(2-isopropyl-5-methoxyphenyl)-4-oxothiazolidin-2-ylidene)urea] | 50 to 100% | 50 to 100%
CCc1ccccc1-n1c(=O)n(CC)s/c1=N\C(=O)NCCc1ccc(-c2ncn(-c3ccc(OC(F)(F)F)cc3)n2)cc1 [FB10, (Z)-1-(2-ethyl-4-(2-ethylphenyl)-3-oxo-1,2,4-thiadiazolidin-5-ylidene)-3-(4-(1-(4-(trifluoromethoxy)phenyl)-1H-1,2,4-triazol-3-yl)phenethyl)urea] | 50 to 100% | 50 to 100%
CCn1s/c(=N\C(=O)NCCc2ccc(-c3ncn(-c4ccc(OC(F)(F)F)cc4)n3)cc2)n(-c2ccc(OC)cc2C(C)C)c1=O [FB11, (Z)-1-(2-ethyl-4-(2-isopropyl-4-methoxyphenyl)-3-oxo-1,2,4-thiadiazolidin-5-ylidene)-3-(4-(1-(4-(trifluoromethoxy)phenyl)-1H-1,2,4-triazol-3-yl)phenethyl)urea] | 50 to 100% | 0 to 50%
CCn1s/c(=N\C(=O)NCCc2ccc(-c3ncn(-c4ccc(OC(F)(F)F)cc4)n3)cc2)n(-c2cc(F)ccc2C(C)C)c1=O [FB12, (Z)-1-(2-ethyl-4-(5-fluoro-2-isopropylphenyl)-3-oxo-1,2,4-thiadiazolidin-5-ylidene)-3-(4-(1-(4-(trifluoromethoxy)phenyl)-1H-1,2,4-triazol-3-yl)phenethyl)urea] | 50 to 100% | 50 to 100%
CCn1s/c(=N\C(=O)NCCc2ccc(-c3ncn(-c4ccc(OC(F)(F)F)cc4)n3)cc2)n(-c2ccc(F)cc2C(C)C)c1=O [FB13, (Z)-1-(2-ethyl-4-(4-fluoro-2-isopropylphenyl)-3-oxo-1,2,4-thiadiazolidin-5-ylidene)-3-(4-(1-(4-(trifluoromethoxy)phenyl)-1H-1,2,4-triazol-3-yl)phenethyl)urea] | 50 to 100% | 0 to 50%
CCn1s/c(=N\C(=O)NCCc2ccc(-c3ncn(-c4ccc(OC(F)(F)F)cc4)n3)cc2)n(-c2ccccc2C(C)C)c1=O [FB14] | 50 to 100% | 50 to 100%
Cc1ccc(C(C)C)c(N2C(=O)CS/C2=N\C(=O)NC2CCCCC2c2ccc(-c3ncn(-c4ccc(OC(F)(F)F)cc4)n3)cc2)c1 (stereo not shown) [FB15, (Z)-1-(3-(2-isopropyl-5-methylphenyl)-4-oxothiazolidin-2-ylidene)-3-(2-(4-(1-(4-(trifluoromethoxy)phenyl)-1H-1,2,4-triazol-3-yl)phenyl)cyclohexyl)urea] | 50 to 100% | 50 to 100%
Cc1ccccc1NC(=S)NC(=O)NCc1cccc(-c2ncn(-c3ccc(OC(F)(F)F)cc3)n2)c1 [FB18, 1-(o-tolylcarbamothioyl)-3-[[3-[1-[4-(trifluoromethoxy)phenyl]-1H-1,2,4-triazol-3-yl]phenyl]methyl]urea] | 50 to 100% | 50 to 100%
COc1ccc(NC(=S)NC(=O)NCc2cccc(-c3ncn(-c4ccc(OC(F)(F)F)cc4)n3)c2)c(C)c1 [FB19, 1-[(4-methoxy-2-methyl-phenyl)carbamothioyl]-3-[[3-[1-[4-(trifluoromethoxy)phenyl]-1H-1,2,4-triazol-3-yl]phenyl]methyl]urea] | 50 to 100% | 50 to 100%
CCc1ccccc1NC(=S)NC(=O)NCc1cccc(-c2ncn(-c3ccc(OC(F)(F)F)cc3)n2)c1 [FB20, 1-[(2-ethylphenyl)carbamothioyl]-3-[[3-[1-[4-(trifluoromethoxy)phenyl]-1H-1,2,4-triazol-3-yl]phenyl]methyl]urea] | 50 to 100% | 50 to 100%
CCc1cccc(C)c1NC(=S)NC(=O)NCc1cccc(-c2ncn(-c3ccc(OC(F)(F)F)cc3)n2)c1 [FB21, 1-[(2-ethyl-6-methyl-phenyl)carbamothioyl]-3-[[3-[1-[4-(trifluoromethoxy)phenyl]-1H-1,2,4-triazol-3-yl]phenyl]methyl]urea] | 50 to 100% | 50 to 100%
CC(C)c1ccccc1NC(=S)NC(=O)NCc1cccc(-c2ncn(-c3ccc(OC(F)(F)F)cc3)n2)c1 [FB22, 1-[(2-isopropylphenyl)carbamothioyl]-3-[[3-[1-[4-(trifluoromethoxy)phenyl]-1H-1,2,4-triazol-3-yl]phenyl]methyl]urea] | 50 to 100% | 50 to 100%
Cc1ccc(NC(=S)NC(=O)NCc2cccc(-c3ncn(-c4ccc(OC(F)(F)F)cc4)n3)c2)c(C(C)C)c1 [FB23, 1-[(2-isopropyl-4-methyl-phenyl)carbamothioyl]-3-[[3-[1-[4-(trifluoromethoxy)phenyl]-1H-1,2,4-triazol-3-yl]phenyl]methyl]urea] | 50 to 100% | 50 to 100%
CC(C)c1cc(F)ccc1NC(=S)NC(=O)NCc1cccc(-c2ncn(-c3ccc(OC(F)(F)F)cc3)n2)c1 [FB24, 1-[(4-fluoro-2-isopropyl-phenyl)carbamothioyl]-3-[[3-[1-[4-(trifluoromethoxy)phenyl]-1H-1,2,4-triazol-3-yl]phenyl]methyl]urea] | 50 to 100% | 50 to 100%
Cc1ccc(C(C)C)c(NC(=S)NC(=O)NCc2cccc(-c3ncn(-c4ccc(OC(F)(F)F)cc4)n3)c2)c1 [FB25, 1-[(2-isopropyl-5-methyl-phenyl)carbamothioyl]-3-[[3-[1-[4-(trifluoromethoxy)phenyl]-1H-1,2,4-triazol-3-yl]phenyl]methyl]urea] | 50 to 100% | 50 to 100%
CC(C)c1ccc(Cl)cc1NC(=S)NC(=O)NCc1cccc(-c2ncn(-c3ccc(OC(F)(F)F)cc3)n2)c1 [FB26, 1-[(5-chloro-2-isopropyl-phenyl)carbamothioyl]-3-[[3-[1-[4-(trifluoromethoxy)phenyl]-1H-1,2,4-triazol-3-yl]phenyl]methyl]urea] | 50 to 100% | 50 to 100%
Cc1ccccc1N1C(=O)CS/C1=N\C(=O)NCc1cccc(-c2ncn(-c3ccc(OC(F)(F)F)cc3)n2)c1 [FB27, (Z)-1-(4-oxo-3-(o-tolyl)thiazolidin-2-ylidene)-3-(3-(1-(4-(trifluoromethoxy)phenyl)-1H-1,2,4-triazol-3-yl)benzyl)urea] | 50 to 100% | 50 to 100%
COc1ccc(N2C(=O)CS/C2=N\C(=O)NCc2cccc(-c3ncn(-c4ccc(OC(F)(F)F)cc4)n3)c2)c(C)c1 [FB28, (Z)-1-(3-(4-methoxy-2-methylphenyl)-4-oxothiazolidin-2-ylidene)-3-(3-(1-(4-(trifluoromethoxy)phenyl)-1H-1,2,4-triazol-3-yl)benzyl)urea] | 50 to 100% | 50 to 100%
CCc1ccccc1N1C(=O)CS/C1=N\C(=O)NCc1cccc(-c2ncn(-c3ccc(OC(F)(F)F)cc3)n2)c1 [FB29, (Z)-1-(3-(2-ethylphenyl)-4-oxothiazolidin-2-ylidene)-3-(3-(1-(4-(trifluoromethoxy)phenyl)-1H-1,2,4-triazol-3-yl)benzyl)urea] | 50 to 100% | 50 to 100%
CCc1cccc(C)c1N1C(=O)CS/C1=N\C(=O)NCc1cccc(-c2ncn(-c3ccc(OC(F)(F)F)cc3)n2)c1 [FB30, (Z)-1-(3-(2-ethyl-6-methylphenyl)-4-oxothiazolidin-2-ylidene)-3-(3-(1-(4-(trifluoromethoxy)phenyl)-1H-1,2,4-triazol-3-yl)benzyl)urea] | 50 to 100% | 50 to 100%
CC(C)c1ccccc1N1C(=O)CS/C1=N\C(=O)NCc1cccc(-c2ncn(-c3ccc(OC(F)(F)F)cc3)n2)c1 [FB31, (Z)-1-(3-(2-isopropylphenyl)-4-oxothiazolidin-2-ylidene)-3-(3-(1-(4-(trifluoromethoxy)phenyl)-1H-1,2,4-triazol-3-yl)benzyl)urea] | 50 to 100% | 50 to 100%
Cc1ccc(N2C(=O)CS/C2=N\C(=O)NCc2cccc(-c3ncn(-c4ccc(OC(F)(F)F)cc4)n3)c2)c(C(C)C)c1 [FB32, (Z)-1-(3-(2-isopropyl-4-methylphenyl)-4-oxothiazolidin-2-ylidene)-3-(3-(1-(4-(trifluoromethoxy)phenyl)-1H-1,2,4-triazol-3-yl)benzyl)urea] | 50 to 100% | 50 to 100%
